This is an account of results in patent publication US20140135327A1, “N- (2 -AMINOPHENYL) BENZAMIDE DERIVATIVES AS HISTONE DEACETYLASE INHIBITORS” (CANCER RESEARCH TECHNOLOGY LIMITED, priority 2011, published 2014).

What all share (assay type): biochemical
In one experiment the target is HDAC 3 (Homo sapiens, UniProt O15379). Description: Fluorescence-based HDAC isoform assay with electrophoretic separation, HDAC 3 (coexpressed with SMRT fragment). To be noted: HDAC3 coexpressed with SMRT fragment (residues 395-489), 1 μM FAM-labeled acetylated peptide, 17 h at 25° C. The method, then: (§1) The inhibitory effects of the compounds of Examples 7 and 9 above on HDAC activity were determined using a fluorescence-based assay with electrophoretic separation of substrate and product carried out using a microfluidic system followed by quantitation of fluorescence intensity in the substrate and product peaks.
HDAC 3, sequence (O15379 whole entry, species assumed, the tested form may be a part, canonical isoform): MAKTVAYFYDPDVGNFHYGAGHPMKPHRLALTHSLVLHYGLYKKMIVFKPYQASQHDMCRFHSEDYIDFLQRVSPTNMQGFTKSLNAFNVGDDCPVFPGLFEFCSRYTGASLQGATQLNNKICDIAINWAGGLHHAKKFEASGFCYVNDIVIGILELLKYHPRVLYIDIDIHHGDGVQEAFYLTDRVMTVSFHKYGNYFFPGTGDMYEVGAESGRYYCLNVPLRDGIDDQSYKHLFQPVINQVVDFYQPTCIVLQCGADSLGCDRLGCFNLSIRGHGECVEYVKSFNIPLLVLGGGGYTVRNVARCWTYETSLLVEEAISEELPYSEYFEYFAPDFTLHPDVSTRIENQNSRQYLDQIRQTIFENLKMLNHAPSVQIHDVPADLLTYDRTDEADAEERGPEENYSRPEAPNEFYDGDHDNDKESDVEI
HDAC 3, sequence (Q9Y618 395-489 partner limits assumed, species assumed): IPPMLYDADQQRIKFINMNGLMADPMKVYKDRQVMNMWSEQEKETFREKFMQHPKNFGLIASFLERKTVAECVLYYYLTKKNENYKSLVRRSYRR
(§2) The assays were performed using isolated HDAC isoforms that had been expressed as 6×His-tagged fusion proteins in a baculovirus expression system in Sf9 cells. HDACs 1, 2, 3, 6, and 8 were expressed as full length fusion proteins. For HDAC-4 and 7 only catalytic domains were expressed (HDAC-4 CAT and HDAC-7 CAT). The HDAC10 fusion protein was expressed as a carboxy-terminal deletion of 38 amino acids (residues 632-669). HDAC3 was coexpressed with a fragment of the SMRT gene (residues 395-489) to generate enzymatically active protein. Purified proteins were incubated with 1 μM carboxyfluorescein (FAM)-labeled acetylated peptide substrate and test compound for 17 h at 25° C. in HDAC assay buffer containing 100 mM HEPES (pH 7.5), 25 mM KCl, 0.1% BSA, and 0.01% Triton X-100. […] Substrate and product were separated electrophoretically using a Caliper LabChip 3000 system with blue laser excitation and green fluorescence detection (CCD2). The fluorescence intensity in the substrate and product peaks was determined using the Well Analyzer software on the Caliper system. […]

Another experiment has as its target T1, HDAC 6 (Homo sapiens, UniProt Q9UBN7).
T1 sequence (Q9UBN7 1-1215): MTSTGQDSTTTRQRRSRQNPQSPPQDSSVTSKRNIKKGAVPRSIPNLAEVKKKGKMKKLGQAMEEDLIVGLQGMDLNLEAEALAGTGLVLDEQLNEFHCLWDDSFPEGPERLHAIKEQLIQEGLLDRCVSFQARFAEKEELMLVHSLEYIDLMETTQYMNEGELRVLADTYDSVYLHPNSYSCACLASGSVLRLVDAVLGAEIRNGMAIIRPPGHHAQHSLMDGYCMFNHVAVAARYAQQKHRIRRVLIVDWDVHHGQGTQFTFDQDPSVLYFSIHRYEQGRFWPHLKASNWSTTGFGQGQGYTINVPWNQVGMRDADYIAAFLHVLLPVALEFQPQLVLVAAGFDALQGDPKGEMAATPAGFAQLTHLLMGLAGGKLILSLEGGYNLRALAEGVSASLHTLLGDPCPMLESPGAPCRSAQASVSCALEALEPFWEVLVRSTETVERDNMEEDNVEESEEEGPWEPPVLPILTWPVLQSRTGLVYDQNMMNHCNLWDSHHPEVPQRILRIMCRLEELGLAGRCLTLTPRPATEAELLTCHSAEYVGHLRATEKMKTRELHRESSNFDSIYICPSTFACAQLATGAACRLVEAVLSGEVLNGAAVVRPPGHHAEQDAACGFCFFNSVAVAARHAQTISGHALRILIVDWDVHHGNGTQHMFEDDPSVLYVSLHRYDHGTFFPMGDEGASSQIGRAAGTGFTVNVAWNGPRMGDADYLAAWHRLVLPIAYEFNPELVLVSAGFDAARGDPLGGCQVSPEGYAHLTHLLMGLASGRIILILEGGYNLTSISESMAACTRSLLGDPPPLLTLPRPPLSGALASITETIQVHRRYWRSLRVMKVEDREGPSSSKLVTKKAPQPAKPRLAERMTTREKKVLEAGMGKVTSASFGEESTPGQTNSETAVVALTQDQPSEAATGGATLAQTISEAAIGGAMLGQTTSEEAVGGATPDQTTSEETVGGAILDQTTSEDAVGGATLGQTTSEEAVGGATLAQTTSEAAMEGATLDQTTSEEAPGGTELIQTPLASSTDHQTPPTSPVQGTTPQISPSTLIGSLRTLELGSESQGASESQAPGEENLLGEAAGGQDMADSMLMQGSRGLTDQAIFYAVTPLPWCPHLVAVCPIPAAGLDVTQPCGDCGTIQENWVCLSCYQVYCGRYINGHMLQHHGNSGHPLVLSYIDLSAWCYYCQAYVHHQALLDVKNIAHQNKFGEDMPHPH
Nature of the experiment: Fluorescence-based HDAC isoform assay with electrophoretic separation, HDAC 6. To be noted: isolated 6×His-tagged isoform, 1 μM FAM-labeled acetylated peptide, 17 h at 25° C. As to the method:
as §1, §2

The target of another experiment is T2, HDAC 2 (Homo sapiens, UniProt Q92769).
T2 construct: HDACs 1, 2, 3, 6, and 8 were expressed as full length fusion proteins; 6xHis; made in house; host or cells: Sf9 cells (baculovirus)
T2 sequence (Q92769 whole entry, species assumed, the tested form may be a part): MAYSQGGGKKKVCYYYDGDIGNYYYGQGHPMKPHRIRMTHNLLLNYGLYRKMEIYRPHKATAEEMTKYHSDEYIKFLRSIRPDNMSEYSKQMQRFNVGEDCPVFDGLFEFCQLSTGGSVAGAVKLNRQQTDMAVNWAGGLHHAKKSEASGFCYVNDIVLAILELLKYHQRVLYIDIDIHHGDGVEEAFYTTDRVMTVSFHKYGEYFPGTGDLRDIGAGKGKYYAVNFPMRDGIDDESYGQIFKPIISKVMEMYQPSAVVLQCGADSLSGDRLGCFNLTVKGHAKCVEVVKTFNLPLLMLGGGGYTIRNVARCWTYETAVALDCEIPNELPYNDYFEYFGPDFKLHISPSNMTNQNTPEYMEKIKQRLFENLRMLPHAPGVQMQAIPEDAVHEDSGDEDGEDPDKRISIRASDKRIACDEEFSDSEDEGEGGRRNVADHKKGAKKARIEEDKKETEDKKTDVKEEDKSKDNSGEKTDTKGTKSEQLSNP
Description: Fluorescence-based HDAC isoform assay with electrophoretic separation, HDAC 2. As to conditions: isolated 6×His-tagged isoform, 1 μM FAM-labeled acetylated peptide, 17 h at 25° C. As to the method: as §1, §2

The next experiment deals with T3, HDAC 8 (Homo sapiens, UniProt Q9BY41).
T3 construct: HDACs 1, 2, 3, 6, and 8 were expressed as full length fusion proteins; 6xHis; made in house; host or cells: Sf9 cells (baculovirus)
T3 sequence (Q9BY41 1-377): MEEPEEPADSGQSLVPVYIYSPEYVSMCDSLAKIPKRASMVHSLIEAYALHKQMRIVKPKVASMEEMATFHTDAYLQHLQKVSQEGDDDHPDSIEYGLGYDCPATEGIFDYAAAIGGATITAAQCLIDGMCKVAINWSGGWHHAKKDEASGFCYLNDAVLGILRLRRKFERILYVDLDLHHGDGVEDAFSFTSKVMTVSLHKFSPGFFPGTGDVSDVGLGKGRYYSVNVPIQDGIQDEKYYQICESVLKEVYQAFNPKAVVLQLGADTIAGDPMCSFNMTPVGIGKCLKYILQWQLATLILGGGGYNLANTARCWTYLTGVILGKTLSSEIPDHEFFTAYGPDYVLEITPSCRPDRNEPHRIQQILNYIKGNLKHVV
Description: Fluorescence-based HDAC isoform assay with electrophoretic separation, HDAC 8. To be noted: isolated 6×His-tagged isoform, 1 μM FAM-labeled acetylated peptide, 17 h at 25° C. As to the method:
as §1, §2

`C=C1CN(Cc2ccc(C(=O)Nc3ccccc3N)cc2)C(=O)c2ccccc21` [Example 7, N-(2-Aminophenyl)-4-[(4-methylene-1-oxo-3,4-dihydroisoquino-2(1H)-yl)methyl]benzamide]: the IC50 was 28.7 nM against HDAC 3, greater than 30000 nM against HDAC 6, 54.4 nM at HDAC 2 and greater than 30000 nM at HDAC 8.

`C=C1CN(Cc2ccc(C(=O)Nc3ccccc3N)cc2)C(CC(=O)O)c2ccccc21` (centres unmarked) [Example 9, [2-(4-{[(2-Aminophenyl)amino]carbonyl}benzyl)-4-methylene-1,2,3,4-tetra hydroisoquinolin-1-yl]acetic acid]: the IC50 against HDAC 3 was 797 nM; against HDAC 6 it was greater than 30000 nM; on HDAC 2, 2110 nM; on HDAC 8, greater than 30000 nM.

One may read the IC50 as the concentration needed to halve the response being measured. Read a high IC50 as lower potency.
